The source of these data is patent US7504513B2, “Thiazolyl-benzimidazoles” (Hoffman-La Roche Inc., priority 2006, dated 2009).

T1 sequence (P53350 whole entry): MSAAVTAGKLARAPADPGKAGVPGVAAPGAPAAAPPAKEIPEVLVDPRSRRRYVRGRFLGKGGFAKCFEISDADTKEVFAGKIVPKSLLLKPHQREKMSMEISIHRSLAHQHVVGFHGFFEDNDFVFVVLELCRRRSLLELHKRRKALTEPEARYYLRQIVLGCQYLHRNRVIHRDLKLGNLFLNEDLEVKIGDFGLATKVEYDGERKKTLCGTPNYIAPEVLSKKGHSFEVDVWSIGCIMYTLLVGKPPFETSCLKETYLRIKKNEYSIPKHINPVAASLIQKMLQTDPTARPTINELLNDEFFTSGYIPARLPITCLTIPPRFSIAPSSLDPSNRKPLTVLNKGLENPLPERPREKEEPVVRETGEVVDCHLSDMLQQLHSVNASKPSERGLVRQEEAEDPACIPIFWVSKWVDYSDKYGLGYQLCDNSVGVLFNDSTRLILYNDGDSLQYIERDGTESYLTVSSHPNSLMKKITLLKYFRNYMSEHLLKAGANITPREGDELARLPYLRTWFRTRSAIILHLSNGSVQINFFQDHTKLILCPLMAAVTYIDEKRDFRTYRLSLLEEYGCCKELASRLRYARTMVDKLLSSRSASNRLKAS

The test concerns the target T1, GST-Plk1 (Homo sapiens, UniProt P53350).
T1 construct: Full-length, active GST-Plk1 was purified from Sf9 insect cells; made in house; host or cells: Sf9 insect cells
Kind of test: Biochemical Characterization Assay: HTRF kinase assay, GST-Plk1 phosphorylation of GST-p53. The following applies: full-length active GST-Plk1, GST-p53 substrate, ATP, 37° C. for 35 minutes, HTRF signal. The method, then: Full-length, active GST-Plk1 was purified from Sf9 insect cells, and full-length GST-p53 was purified in E. coli. Anti-phospho p53 antibody was purchased from Cell Signaling Technology. Europium-conjugated anti-rabbit antibody was purchased from PerkinElmer Life and Analytical Sciences. APC-conjugated anti-GST antibody was purchased from Prozyme.
To two microliters of compound (0.6 nM-4 mM) in DMSO or plain DMSO for control wells, 38 microliters of 20 mM HEPES pH 7, 50 mM NaCl, 10 mM MgCl2, 0.5 mM TCEP, 0.1 mM sodium orthovanadate, 0.1 mg/ml BSA, and 0.05% Triton X-100 (Kinase Assay Buffer) were added. Eight microliters of the compound solution were added to a 384-well black microtiter plate, followed by six microliters of GST-p53 (17 ug/ml) and ATP (333 uM) in Kinase Assay Buffer. Six microliters of GST-Plk1 (3 ug/ml) in Kinase Assay Buffer were then added and the solution incubated at 37° C. for 35 minutes. Six microliters of solution containing 43 mM EDTA to stop the reaction and a 1:600 dilution of anti-phospho-p53 antibody in 20 mM HEPES pH 7, 50 mM NaCl, and 0.5 mg/ml BSA (Antibody Binding Buffer) were added and the solution incubated at 37° C. for 30 minutes. Six microliters of solution containing 9 nM europium-conjugated anti-rabbit antibody and 120 nM APC-conjugated anti-GST antibody in Antibody Binding Buffer were then added and the mixture incubated at room temperature for 1.5 hours. The HTRF signal was read on the Envision reader (PerkinElmer Life and Analytical Sciences).
Molecule `COc1cc2ncn(-c3nc(-c4cccc(Cl)c4)c(C(N)=O)s3)c2cc1OC` [Example 36, 4-(3-Chloro-phenyl)-2-(5,6-dimethoxy-benzoimidazol-1-yl)-thiazole-5-carboxylic acid amide] registered an IC50 of 0.431 µM.

`COc1cc2ncn(-c3nc(-c4ccnc(Cl)c4)c(C(=O)O)s3)c2cc1OC` [Example 64, 4-(2-Chloro-pyridin-4-yl)-2-(5,6-dimethoxy-benzoimidazol-1-yl)-thiazole-5-carboxylic acid] yielded an IC50 of 0.075 µM.

Consider `COc1cc2ncn(-c3nc(-c4ccccc4)c(C(=O)N(C)C)s3)c2cc1OC` [Example 10, 2-(5,6-Dimethoxy-benzoimidazol-1-yl)-4-phenyl-thiazole-5-carboxylic acid dimethylamide], for which half-maximal inhibition (IC50) required 1.39 µM.

In the case of `COc1cc2ncn(-c3nc(-c4cccc(Cl)c4)c(C(=O)NNC(=O)c4cccs4)s3)c2cc1OC` [Example 53, Thiophene-2-carboxylic acid N′-[4-(3-chloro-phenyl)-2-(5,6-dimethoxybenzoimidazol-1-yl)-thiazole-5-carbonyl]-hydrazide], half-maximal inhibition (IC50) required 0.018 µM.

Molecule `NC(=O)c1sc(-n2cnc3ccccc32)nc1-c1ccccc1` [Example 3, 2-Benzoimidazol-1-yl-4-phenyl-thiazole-5-carboxylic acid amide] came in with a concentration for half-maximal inhibition (IC50) of 7.36 µM.

“2-(5-Chlorobenzoimidazol-1-yl)-4-phenylthiazole-5-carboxylic acid and 2-(6-chlorobenzoimidazol-1-yl)-4-phenylthiazole-5-carboxylic acid [Example 14]” came in with an IC50 of 0.72 µM.

For the molecule `COc1cc2ncn(-c3nc(-c4ccc(F)c(Cl)c4)c(C(=O)O)s3)c2cc1OC` [Example 19, 4-(3-Chloro-4-fluoro-phenyl)-2-(5,6-dimethoxy-benzoimidazol-1-yl)-thiazole-5-carboxylic acid], 0.087 µM corresponded to half-maximal inhibition (IC50).

As to `COc1ccc(-c2nc(-n3cnc4cc(OC)c(OC)cc43)sc2C(=O)O)cc1` [Example 28, 2-(5,6-Dimethoxy-benzoimidazol-1-yl)-4-(4-methoxy-phenyl)-thiazole-5-carboxylic acid], the IC50 stood at 0.856 µM.

On to `COc1cc2ncn(-c3nc(-c4cccc5ccccc45)c(C(=O)O)s3)c2cc1OC` [Example 32, 2-(5,6-Dimethoxy-benzoimidazol-1-yl)-4-naphthalen-1-yl-thiazole-5-carboxylic acid], for which the IC50 was determined as 3.18 µM.

`COc1cc2ncn(-c3nc(-c4ccccc4O)c(C(=O)O)s3)c2cc1OC` [Example 30, 2-(5,6-Dimethoxy-benzoimidazol-1-yl)-4-(2-hydroxy-phenyl)-thiazole-5-carboxylic acid] showed an IC50 of 0.275 µM.

The molecule `COc1cc2ncn(-c3nc(-c4cccc(C(C)C)c4)c(C(=O)O)s3)c2cc1OC` [Example 24, 2-(5,6-Dimethoxy-benzoimidazol-1-yl)-4-(3-isopropyl-phenyl)-thiazole-5-carboxylic acid] showed an IC50 of 0.068 µM.

Take `COc1cc2ncn(-c3nc(-c4ccccc4C)c(C(=O)O)s3)c2cc1OC` [Example 27, 2-(5,6-Dimethoxy-benzoimidazol-1-yl)-4-o-tolyl-thiazole-5-carboxylic acid]: the concentration for half-maximal inhibition (IC50) was found to be 1.62 µM.

Turning to `COc1cc2ncn(-c3nc(-c4cccc(Cl)c4)c(C(=O)Nn4cnnc4)s3)c2cc1OC` [Example 57, 4-(3-Chloro-phenyl)-2-(5,6-dimethoxy-benzoimidazol-1-yl)-thiazole-5-carboxylic acid [1,2,4]triazol-4-ylamide], the IC50 came to 0.344 µM.

In the case of `COc1cc2ncn(-c3nc(-c4ccccc4)c(C(=O)O)s3)c2cc1OC` [Example 1, 2-(5,6-Dimethoxybenzoimidazol-1-yl)-4-phenylthiazole-5-carboxylic acid], it took 0.107 µM to reach half-maximal inhibition (IC50).

In turn, `COc1cc2ncn(-c3nc(-c4ccccc4)c(C(N)=O)s3)c2cc1OC` [Example 6, 2-(5,6-Dimethoxy-benzoimidazol-1-yl)-4-phenyl-thiazole-5-carboxylic acid amide] showed an IC50 of 1.38 µM.

`COc1cc2ncn(-c3nc(-c4ccc(F)c(F)c4)c(C(=O)O)s3)c2cc1OC` [Example 47, 4-(3,4-Difluoro-phenyl)-2-(5,6-dimethoxy-benzoimidazol-1-yl)-thiazole-5-carboxylic acid] had an IC50 of 0.542 µM.
